Data on nine compounds can be found in patent US12188040B2, “Method for enhancing gene expression using AAV vector” (priority 2018, dated 2025).

Molecules are shown by their SMILES. “And” between values parts separate entries of the source, which are not always exact repeats. Equal values may be shown once. Read-outs that look alike come from different tables or passages of the source.

The test has as its system HEK293 cells. The note with it: for D/L ratio of expression intensity: 132 mM; for Effect of enhancement compared among the sugars: monosaccharides 100 or 200 mM; for GFP intensity: Exp 2, AAV3B 6×10^7 vg/well, iso-osmotic additives: sucrose 125.0, glucose 132.3, mannitol 132.3, NaCl 71.5 mM. The procedure: As the first procedure, 4 methods of the addition were carried out, including adding sucrose immediately (5 minutes or less) after the administration of the AAV vector, and the administration of the AAV vector immediately (5 minutes or less) after, 10 minutes after or 1 hour after adding sucrose to cells.
In the same manner as the above-described procedure, the GFP expression level was measured 3 days later.
In the same manner as the above-described procedures, the GFP expression level was measured 3 days later.
AAV3B-CMV-AcGFP was mixed in advance with sucrose at each of various concentrations, and the mixture was allowed to stand at room temperature for 1 hour followed by administration to cells. […] In order to prevent cell damage due to a buffer at the time of dilution of sucrose, medium replacement was carried out using a sucrose solution having the same concentration that was prepared by the medium 3 hours after the administration.

Where [1] appears, read: Exp 5, AAV3B 1×10^8 vg/well premixed 1 h, glucose 132 mM final, Day 1.
[2] abbreviates: Exp 5, AAV3B 1×10^8 vg/well premixed 1 h, glucose 132 mM final, Day 2.
Where [3] appears, read: Exp 5, AAV3B 1×10^8 vg/well premixed 1 h, glucose 132 mM final, Day 3.
Setting [4] is: Exp 9, monosaccharide 100 mM, 3 days.
The mark [5] stands for this setting: Exp 9, monosaccharide 100 mM, AAV3B 1×10^8 vg/well premixed 1 h, 3 days.
[6] abbreviates: Exp 9, monosaccharide 200 mM, 3 days.
Where [7] appears, read: Exp 9, monosaccharide 200 mM, AAV3B 1×10^8 vg/well premixed 1 h, 3 days.
Setting [8] is: Exp 8, disaccharide 100 mM in medium, AAV3B 1×10^8 vg/well, Day 3.
Setting [9] is: Exp 8, disaccharide 100 mM, Day 3.
[10] abbreviates: Exp 8, disaccharide 125 mM in medium, AAV3B 1×10^8 vg/well, Day 3.
The mark [11] stands for this setting: Exp 8, disaccharide 125 mM, Day 3.
[12] abbreviates: Exp 8, disaccharide 150 mM in medium, AAV3B 1×10^8 vg/well, Day 3.
Where [13] appears, read: Exp 8, disaccharide 150 mM, AAV3B 1×10^8 vg/well, Day 1.
The mark [14] stands for this setting: Exp 8, disaccharide 150 mM, AAV3B 1×10^8 vg/well, Day 2.
The mark [15] stands for this setting: Exp 8, disaccharide 150 mM, AAV3B 1×10^8 vg/well, Day 6.
Setting [16] is: Exp 8, disaccharide 150 mM, Day 3.

Take `O=C[C@H](O)[C@@H](O)[C@H](O)[C@H](O)CO` [D-Glucose, D-glucose]: the “D/L ratio of expression intensity” value (Exp 5, Day 1) stood at 1.5 times; the “D/L ratio of expression intensity” value (Exp 5, Day 2) came to 1.8; the “D/L ratio of expression intensity” value (Exp 5, Day 3) stood at 2.1 times. Further, the “Fluorescence Intensity” value is, setting by setting: under setting [1], 161.0; under setting [2], 1232.5; under setting [3], 2966.3.

Consider `O=C(CO)[C@@H](O)[C@H](O)[C@H](O)CO` [Fructose, fructose], for which the “Relativeness (vs (−))” value under setting [4] is given as 2.7 and the “Relativeness (vs (−))” value under setting [6] is reported as 16.2 times. The “Fluorescence Intensity” value was 402.0 under setting [5] and 2378.5 under setting [7]. Where the note is “Exp 9, 3 days”, the “Effect of enhancement compared among the sugars” value is listed as “comparable to that of sucrose”.

For `O=C[C@H](O)[C@@H](O)[C@@H](O)[C@H](O)CO` [Galactose, galactose], the “Relativeness (vs (−))” value came out at 1.3 under setting [4] and 4.0 times under setting [6]. The “Fluorescence Intensity” value under setting [5] was determined as 189.5 and the “Fluorescence Intensity” value under setting [7] is recorded as 583.5. Also, the “Effect of enhancement compared among the sugars” value (Exp 9, 3 days) was “lower than those of the other sugars”.

`O=C[C@@H](O)[C@H](O)[C@@H](O)[C@@H](O)CO` [L-Glucose, L-glucose, reference compound]: the “Fluorescence Intensity” value reads like this: under setting [1], 104.7; under setting [2], 669.2; under setting [3], 1397.7. Besides, under “Exp 5, glucose 132 mM final, Day 1”, the “Relativeness (vs Glucose(−))” value is 11 times and 11.0 times.

As for `OC[C@H]1O[C@@H](O[C@H]2[C@H](O)[C@@H](O)C(O)O[C@@H]2CO)[C@H](O)[C@@H](O)[C@H]1O` (some centres unmarked) [Lactose, lactose], the “Fluorescence Intensity” value runs as follows: under setting [8], 1189.0; under setting [10], 1880.3; under setting [12], 3606.8; under setting [13], 503.2; under setting [14], 2097.0; under setting [15], 10798.2. Also, the “Relativeness (vs No Sugar)” value is 2.0 under setting [9] and 3.1 under setting [11].

On to `OC[C@H]1O[C@H](O[C@H]2[C@H](O)[C@@H](O)[C@H](O)O[C@@H]2CO)[C@H](O)[C@@H](O)[C@@H]1O` [Maltose, maltose], for which the “Fluorescence Intensity” value under setting [8] was found to be 1158.0; the “Fluorescence Intensity” value under setting [10] was determined as 1833.5; the “Fluorescence Intensity” value under setting [12] is 3281.8; the “Fluorescence Intensity” value under setting [13] was 532.7; the “Fluorescence Intensity” value under setting [14] amounted to 2009.0. Also, the “Relativeness (vs No Sugar)” value under setting [9] is listed as 1.9, the “Relativeness (vs No Sugar)” value under setting [11] is 3.0 and the “Relativeness (vs No Sugar)” value under setting [16] was found to be 5.4.

Take `OC[C@@H](O)[C@@H](O)[C@H](O)[C@H](O)CO` [Mannitol, mannitol, reference compound]: the GFP intensity (3 days) is on record as 342.8.

Regarding `[Cl-].[Na+]` [NaCl, reference compound], the GFP intensity (3 days) turned out to be 2.5.

In the case of `OC[C@H]1O[C@H](O[C@H]2O[C@H](CO)[C@@H](O)[C@H](O)[C@H]2O)[C@H](O)[C@@H](O)[C@@H]1O` [Trehalose, trehalose], the “Fluorescence Intensity” value came to 995.7 under setting [8]; 1249.0 under setting [10]; 1903.7 under setting [12]; 230.7 under setting [13]; 949.8 under setting [14]; 6490.7 under setting [15]. In addition, the “Relativeness (vs No Sugar)” value turned out to be 1.6 under setting [9], 2.1 under setting [11] and 3.1 under setting [16].
